Measured values reported in patent US20240148749A1 (priority 2021, published 2024).

Columns and labels:
[1] = system: Cd11b+ microglial cells; assay: Gene expression of microglial immuno-phenotype markers (RT-qPCR) in Cd11b+ microglial cells sorted from brain at 21 days; type: in vivo, mouse
Protocol: We used peritonitis induced by CLP as a model of sepsis (Rittirsch et al., 2009). Briefly, animals were anesthetized with ketamine (Imalgene® 1000 100 mg/kg, Merial, France) and Xylazine (Rompun® 2% 20 mg/kg, Bayer, Germany) prior to surgery. After laparotomy, caecum was ligatured at the distal third with a 4.0 suture and the distal part was perforated twice with a 21 Gauge needle.
(§1) MnTBAP is commercially available: it is for example manufactured by Sigma-Aldrich, Calbiochem, etc. For use it is dissolved following the guidance provided by the manufacturer.
Brains were collected for cell dissociation and Cdllb-positive cell separation using a magnetic coupled antibody (MACS® Technology), according to the manufacturer's protocol (Miltenyi Biotec, Bergisch Gladbach, Germany) and as previously described (Schang et al., 2014). In brief, mice were intracardially perfused with NaCl 0,9%. The brains are then dissociated using the Neural Tissue Dissociation Kit containing trypsin and the gentleMACS Octo Dissociator with Heaters. From the resulting brain homogenate, cd11 b-positive cells were enriched using the anti-cd11 b MicroBeads. After elution the isolated cells were centrifuged for 5 min at 200G and conserved at −80° C.
(§2) Total RNA was isolated from cells using the RNAeasy Micro kit (Qiagen), and reverse-transcribed using Superscript® III Reverse transcriptase (Invitrogen). Real-time quantitative PCR was performed in duplicate for each sample using Power Sybr Green PCR Master Mix (Applied Biosystems) and the rate of dye incorporation was monitored using the StepOne™ Plus RealTime PCR system (Applied Biosystems). Data were analyzed by StepOne Plus RT PCR software v2.1 and Microsoft excel. Amplification specificity was assessed with a melting curve analysis. TBP transcript levels were used for normalisation of each target (=ΔCT). Real-time PCR CT values were analyzed using the 2^−(ΔCt) method to calculate the fold expression (Schmittgen et al., 2008). The data are presented as relative mRNA units with respect to control group (expressed as fold over control value). Primer sequences available upon request.
We have adopted nomenclature consistent with previous work in microglia (Chhor et al., 2013). We distinguished 3 types of phenotypes according to the mRNA expression levels of markers listed in brackets: pro-inflammatory phentoype (Ptgs2, Cd32, Cd86), alternative phenotype (Lgals3, Igf1 and CD206) and immunoregulatory phenotype (II1rn, II4ra, Socs3).
Quantification of pro-inflammatory markers (CD32, CD86 and Ptgs2 mRNA), anti-inflammatory markers (Lgals3, IGF1 and CD206 mRNA) and immuno-regulator markers (IL1-RA, IL4-Rα and SOCS3 mRNA) by RT-qPCR in Cd11b+ microglial cells magnetically sorted from the brain at 21 days. Control mice were non-operated but anesthetized. The data shown represent median values of n=5 mice per group. Two-way analyses of variance (ANOVAs) CLP vs Control×MnTBAP vs Placebo were performed. […] Data are represented as fold changes using the 2-ΔΔCT method.

[2] = system: brain; assay: Brain ROS/RNS, antioxidant defense and bioenergetic/mitochondrial parameters at 21 days; type: in vivo, mouse
Source text: (b) Levels of the central bioenergetic metabolite Acetyl-CoA expressed in nmol/g. Expression of genes coding for PGC-lalpha quantified by RT-qPCR from RNA isolated from brains extracted from control and CLP mice with or without MnTBAP.
Data shown are mean values (±SD). Gray bars represent MnTBAP-treated mice from either CLP or control groups, and black bars represent placebo-treated mice from either CLP or Control groups. Two-way analyses of variance (ANOVAs) (CLP vs Control×MnTBAP vs Placebo) were performed. When a significant interaction was observed, planned comparisons were performed for the CLPI/Placebo group against the three other groups. The significance of the planned comparisons is indicated with asterisks (*p<0.05, **p<0.01, ***p<0.001, ****p<0.0001) .
as §1, §2
Microglial cells and brain samples were resuspended in lysis buffer (50 mM TrisHCI pH 7.5, 150 mM NaCl, 1% Triton X-100, 0.1% SDS, 1 mM EDTA, and protease inhibitor mixture), mechanically homogenized with a piston, briefly vortexed and incubated for 30 min at 4° C. Lysed samples were briefly centrifuged to remove debris, and the whole supernatant extract was collected. Aliquots of the supernatant were immediately used for the assessment of ROS level, RNS level, dual ROS/RNS level, SOD activity, and Acetyl-Coa level. The protein content was determined with the Bradford reagent (Sigma-Aldrich).
Both ROS and RNS were measured by incubating CellROX (Life Technologies) with 30 μg of freshly extracted total proteins for 45 min at 37° C. in the dark in 96-wells plate in triplicate. Fluorescence intensity was measured using near-infra-red fluorescence setting with the plate reader Odyssey Infrared Imaging system scanner and Odyssey application software v3.0 (LI-COR Biosciences, Lincoln, NE).
SOD activity was measured with Superoxide Dismutase Activity Colorimetric Assay kit (Abcam, ab65354), following the manufacturer's instructions. This measurement assesses SOD-dependent inhibition of superoxide anion reduction. Tests were performed with 30 μg of freshly extracted total proteins, quantified by Bradford assay, or with 10 μl of serum, in triplicate.
Total DNA was prepared using extraction buffer (0.2 mg ml^−1 proteinase K, 0.2% SDS and 5 mM EDTA in PBS) and incubated at 50° C. for 3 h. DNA was precipitated with 3 M sodium acetate (pH 5.2) and isopropanol for 20 min on ice before centrifugation at 8,000 g at 4° C. The DNA pellet was washed and briefly air-dried. qPCR amplification was performed on total DNA using the StepOne Plus RealTime PCR system (Applied Biosystems) and Power Sybr Green PCR Master mix (ABI) following the manufacturer's instruction. A fragment of mitochondrial COI gene, the established marker for mtDNA content in mouse cells, was amplified using the nuclear encoded Ndufv1 gene as endogenous reference. […]

[3] = CLP mice + MnTBAP, 21 days after sepsis
[4] = CLP mice + MnTBAP, 21 days after sepsis, remained different from Control-Placebo
[5] = MnTBAP in control mice vs Control-placebo mice
[6] = MnTBAP in control mice vs Control-placebo mice, p<0.0001

## O=C(O)c1ccc(/C2=C3\C=CC(=N3)/C(c3ccc(C(=O)O)cc3)=c3/cc/c4[n]3[Mn]([Cl])[n]3c2ccc3/C(c2ccc(C(=O)O)cc2)=C2/C=CC(=N2)\C=4c2ccc(C(=O)O)cc2)cc1 [MnTBAP, Manganese (III) tetrakis (4-benzoic acid)porphyrin chloride]
[1]; CLP-MnTBAP group vs CLP-placebo group, p=0.01, did not differ from Control-placebo
  IL1β expression in microglial cells: significantly lower
[1]; CLP-MnTBAP group vs CLP-placebo group, p=0.023, did not differ from Control-placebo
  Lgals3 (M2a) gene expression in microglial cells: significantly lower
[1]; MnTBAP alone (control mice)
  microglial immunophenotype: did not alter
[1]; septic mice
  microglial immunoprofile: shifts microglial immunoprofile from a neurotoxic toward a neuroprotective phenotype
[1]; septic mice, MnTBAP compared to the placebo group, p=0.026, did not differ from Control-placebo
  Ptgs2 (M1 marker) transcripts in microglial cells: significantly reduced
[1]; septic mice, MnTBAP compared to the placebo group, p=0.047, did not differ from Control-placebo
  IL1RA (M2b marker) transcripts in microglial cells: significantly reduced
[2]; [3]
  brain acetyl-coA levels: strongly decreased
  brain mtRNA 16S levels: strongly decreased
[2]; [4]
  brain ATP production: significantly increasing
  brain ROS/RNS levels: significantly increasing
  brain SOD1 expression: significantly increasing
  brain SOD activity levels: significantly increasing
[2]; CLP mice, 21 days after sepsis
  sepsis-induced brain alterations: counteracted
[2]; [5]
  brain PGC1 alpha expression: did not affect
  brain acetyl-coA levels: did not affect
  brain catalase expression: did not affect
[2]; [6]
  brain ATP production: increase
  brain NRF2 expression: increase
  brain SOD1 expression: increase
  brain SOD2 expression: increase
  brain SOD activity: increase
  brain mtDNA content: increase
[2]; MnTBAP in control mice vs Control-placebo mice, p=0.0005
  brain mtRNA 16S level: increase
[2]; MnTBAP in control mice vs Control-placebo mice, p=0.001
  brain ROS/RNS levels: increase
[2]; MnTBAP in control mice vs Control-placebo mice, p=0.04
  brain mtRNA CytB level: increase
